Experimental data taken from patent publication US6737383B1, “Herbicidal oxadiazolidines” (priority 1999, dated 2004).

Legend:
bedstraw = experiment: Test B pre/postemergence bedstraw; type: in vivo, Galium aparine
Procedure, shortened: (§1)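 Test chemicals in a non-phytotoxic solvent mixture with surfactant were sprayed preemergence onto planted seeds and postemergence onto plants 2 to 18 cm tall (1- to 4-leaf stage). After twelve to sixteen days in a greenhouse, injury was visually rated against untreated controls from 0 (no effect) to 10 (complete control).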

blackgrass = experiment: Test B pre/postemergence blackgrass; type: in vivo, Alopecurus myosuroides
Procedure, shortened: as §1

surinam grass = experiment: Test B pre/postemergence surinam grass; type: in vivo, Brachiaria decumbens
Procedure, shortened: as §1

cocklebur = experiment: Test B pre/postemergence cocklebur; type: in vivo, Xanthium strumarium
Procedure, shortened: as §1

corn = experiment: Test B pre/postemergence corn; type: in vivo, Zea mays
Procedure, shortened: as §1

crabgrass = experiment: Test B pre/postemergence crabgrass; type: in vivo, Digitaria sanguinalis
Procedure, shortened: as §1

giant foxtail = experiment: Test B pre/postemergence giant foxtail; type: in vivo, Setaria faberii
Procedure, shortened: as §1

morningglory = experiment: Test B pre/postemergence morningglory; type: in vivo, Ipomoea hederacea
Procedure, shortened: as §1

pigweed = experiment: Test B pre/postemergence pigweed; type: in vivo, Amaranthus retroflexus
Procedure, shortened: as §1

rape = experiment: Test B pre/postemergence rape; type: in vivo, Brassica napus
Procedure, shortened: as §1

soybean = experiment: Test B pre/postemergence soybean; type: in vivo, Glycine max
Procedure, shortened: as §1

sugar beet = experiment: Test B pre/postemergence sugar beet; type: in vivo, Beta vulgaris
Procedure, shortened: as §1

velvetleaf = experiment: Test B pre/postemergence velvetleaf; type: in vivo, Abutilon theophrasti
Procedure, shortened: as §1

wheat = experiment: Test B pre/postemergence wheat; type: in vivo, Triticum aestivum
Procedure, shortened: as §1

wild oat = experiment: Test B pre/postemergence wild oat; type: in vivo, Avena fatua
Procedure, shortened: as §1

purple nutsedge = experiment: Test B pre/postemergence purple nutsedge; type: in vivo, Cyperus rotundus
Procedure, shortened: as §1

rice = experiment: Test B flood test rice; type: in vivo, Oryza sativa
Procedure, shortened: (§2)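 Flood test on plants grown to the 2-leaf stage; treated plants kept in greenhouse twelve to sixteen days, then visually rated against controls on a 0 (no effect) to 10 (complete control) scale.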

smallflower flatsedge = experiment: Test B flood test smallflower flatsedge; type: in vivo, Cyperus difformis
Procedure, shortened: as §2

duck salad = experiment: Test B flood test duck salad; type: in vivo, Heteranthera limosa
Procedure, shortened: as §2

bamyardgrass = experiment: Test B flood test barnyardgrass; type: in vivo, Echinochloa crus-galli
Procedure, shortened: as §2

[1] = Postemergence, Rate 62 g/ha, scale 0 to 10, 0 is no effect, 10 is complete control
[2] = Preemergence, Rate 62 g/ha, scale 0 to 10 (0 no effect, 10 complete control)
[3] = Preemergence, Rate 125 g/ha, scale of 0 to 10 where 0 is no effect and 10 is complete control
[4] = Preemergence, Rate 500 g/ha, scale of 0 to 10 where 0 is no effect and 10 is complete control
[5] = Postemergence, Rate 125 g/ha, scale of 0 to 10 where 0 is no effect and 10 is complete control
[6] = Postemergence, Rate 250 g/ha, scale of 0 to 10, 0 is no effect, 10 is complete control
[7] = Postemergence, Rate 500 g/ha, scale of 0 to 10 where 0 is no effect and 10 is complete control
[8] = Rate 62 g/ha, flood test species, Pre-emergence, visual evaluation after twelve to sixteen days
[9] = Rate 125 g/ha, under heading Pre-emergence, flood test species, visual evaluation after twelve to sixteen days
[10] = Rate 250 g/ha, Pre-emergence (flood test species), scale 0 to 10, 0 is no effect, 10 is complete control
[11] = Rate 500 g/ha, Pre-emergence section of Table B, 0 to 10 scale (0 no effect, 10 complete control)

## C=C(Cn1c(=O)on(C(=O)N(c2ccccc2)C(C)C)c1=O)c1cccc(Cl)n1 [Compound 605]
bedstraw; [1]
  Plant response rating, Bedstraw: 0
bedstraw; [2]
  Bedstraw plant response rating: 0
bedstraw; [3]
  Bedstraw plant response rating: 0
bedstraw; Preemergence, Rate 250 g/ha
  Bedstraw plant response rating (0 to 10 scale): 0
bedstraw; [4]
  Bedstraw plant response rating: 0
blackgrass; [1]
  Plant response rating, Blackgrass: 0
blackgrass; [5]
  Plant response rating, Blackgrass: 0
blackgrass; [6]
  Blackgrass plant response rating: 0
blackgrass; [7]
  Plant response rating, Blackgrass: 0
blackgrass; [2]
  Blackgrass plant response rating: 0
blackgrass; [3]
  Blackgrass plant response rating: 0
blackgrass; Preemergence, Rate 250 g/ha
  Blackgrass plant response rating (0 to 10 scale): 0
blackgrass; [4]
  Blackgrass plant response rating: 0
Surinam grass; [1]
  Plant response rating, B. signalgrass: 0
Surinam grass; [5]
  Plant response rating, B. signalgrass: 0
Surinam grass; [6]
  B. signalgrass plant response rating: 0
Surinam grass; [7]
  Plant response rating, B. signalgrass: 0
Surinam grass; [2]
  B. signalgrass plant response rating: 0
Surinam grass; [3]
  B. signalgrass plant response rating: 0
Surinam grass; Preemergence, Rate 250 g/ha
  B. signalgrass plant response rating (0 to 10 scale, 0 is no effect, 10 is complete control): 0
Surinam grass; [4]
  B. signalgrass plant response rating: 0
cocklebur; [1]
  Plant response rating, Cocklebur: 0
cocklebur; [5]
  Plant response rating, Cocklebur: 0
cocklebur; [6]
  Cocklebur plant response rating: 0
cocklebur; [7]
  Plant response rating, Cocklebur: 0
cocklebur; [2]
  Cocklebur plant response rating: 0
cocklebur; [3]
  Cocklebur plant response rating: 0
cocklebur; Preemergence, Rate 250 g/ha
  Cocklebur plant response rating (0 to 10 scale): 0
cocklebur; [4]
  Plant response rating, Cocklebur: 0
corn; [1]
  Plant response rating, Corn: 0
corn; [5]
  Plant response rating, Corn: 0
corn; [6]
  Corn plant response rating: 0
corn; [7]
  Plant response rating, Corn: 0
corn; [2]
  Corn plant response rating: 0
corn; [3]
  Corn plant response rating: 0
corn; Preemergence, Rate 250 g/ha
  Corn plant response rating (0 to 10 scale): 0
corn; [4]
  Plant response rating, Corn: 0
crabgrass; [1]
  Plant response rating, Crabgrass: 0
crabgrass; [5]
  Plant response rating, Crabgrass: 0
crabgrass; [6]
  Crabgrass plant response rating: 1
crabgrass; [7]
  Plant response rating, Crabgrass: 3
crabgrass; [2]
  Crabgrass plant response rating: 0
crabgrass; [3]
  Crabgrass plant response rating: 3
crabgrass; [4]
  Plant response rating, Crabgrass: 10
Giant foxtail; [1]
  Plant response rating, Giant foxtail: 0
Giant foxtail; [5]
  Plant response rating, Giant foxtail: 0
Giant foxtail; [6]
  Giant foxtail plant response rating: 0
Giant foxtail; [7]
  Plant response rating, Giant foxtail: 2
Giant foxtail; [2]
  Giant foxtail plant response rating: 2
Giant foxtail; [3]
  Giant foxtail plant response rating: 10
Giant foxtail; [4]
  Plant response rating, Giant foxtail: 10
morningglory; [5]
  Plant response rating, Morningglory: 6
morningglory; [6]
  Morningglory plant response rating: 9
morningglory; [7]
  Plant response rating, Morningglory: 10
morningglory; [2]
  Morningglory plant response rating: 0
morningglory; [3]
  Morningglory plant response rating: 0
pigweed; [1]
  Plant response rating, Redroot pigweed: 0
pigweed; [5]
  Plant response rating, Redroot pigweed: 0
pigweed; [6]
  Redroot pigweed plant response rating: 0
pigweed; [7]
  Plant response rating, Redroot pigweed: 0
pigweed; [2]
  Redroot pigweed plant response rating: 0
pigweed; [3]
  Redroot pigweed plant response rating: 0
pigweed; [4]
  Plant response rating, Redroot pigweed: 0
rape; [1]
  Plant response rating, Rape: 0
rape; [5]
  Plant response rating, Rape: 0
rape; [6]
  Rape plant response rating: 0
rape; [7]
  Plant response rating, Rape: 0
rape; [2]
  Rape plant response rating: 0
rape; [3]
  Rape plant response rating: 0
rape; [4]
  Plant response rating, Rape: 0
soybean; [1]
  Plant response rating, Soybean: 2
soybean; [5]
  Plant response rating, Soybean: 2
soybean; [6]
  Soybean plant response rating: 3
soybean; [7]
  Plant response rating, Soybean: 5
soybean; [2]
  Soybean plant response rating: 0
soybean; [3]
  Soybean plant response rating: 0
soybean; [4]
  Plant response rating, Soybean: 0
Sugar beet; [1]
  Plant response rating, Sugarbeets: 0
Sugar beet; [5]
  Plant response rating, Sugarbeets: 0
Sugar beet; [6]
  Sugarbeets plant response rating: 0
Sugar beet; [7]
  Plant response rating, Sugarbeets: 0
Sugar beet; [2]
  Sugarbeets plant response rating: 0
Sugar beet; [3]
  Sugarbeets plant response rating: 0
Sugar beet; [4]
  Plant response rating, Sugarbeets: 0
velvetleaf; [1]
  Plant response rating, Velvetleaf: 0
velvetleaf; [5]
  Plant response rating, Velvetleaf: 0
velvetleaf; [6]
  Velvetleaf plant response rating: 0
velvetleaf; [7]
  Plant response rating, Velvetleaf: 0
velvetleaf; [2]
  Velvetleaf plant response rating: 0
velvetleaf; [3]
  Velvetleaf plant response rating: 0
velvetleaf; [4]
  Plant response rating, Velvetleaf: 0
wheat; [1]
  Plant response rating, Wheat: 1
wheat; [5]
  Plant response rating, Wheat: 1
wheat; [6]
  Wheat plant response rating: 1
wheat; [7]
  Plant response rating, Wheat: 2
wheat; [2]
  Wheat plant response rating: 0
wheat; [3]
  Wheat plant response rating: 0
wheat; [4]
  Plant response rating, Wheat: 0
Wild oat; [1]
  Plant response rating, Wild oats: 2
Wild oat; [5]
  Plant response rating, Wild oats: 1
Wild oat; [6]
  Wild oats plant response rating: 1
Wild oat; [7]
  Plant response rating, Wild oats: 2
Wild oat; [2]
  Wild oats plant response rating: 0
Wild oat; [3]
  Wild oats plant response rating: 0
Wild oat; [4]
  Plant response rating, Wild oats: 0
Purple nutsedge; [1]
  Plant response rating, Nutsedge: 0
Purple nutsedge; [5]
  Plant response rating, Nutsedge: 0
Purple nutsedge; [6]
  Nutsedge plant response rating: 0
Purple nutsedge; [7]
  Plant response rating, Nutsedge: 0
Purple nutsedge; [2]
  Nutsedge plant response rating: 0
Purple nutsedge; [3]
  Nutsedge plant response rating: 0
Purple nutsedge; [4]
  Plant response rating, Nutsedge: 0
rice; [8]
  Plant response rating, Rice (0 to 10 scale, 0 is no effect, 10 is complete control): 0
rice; [9]
  Rice plant response rating (0 to 10 scale, 0 is no effect, 10 is complete control): 0
rice; [10]
  Rice plant response rating: 0
rice; [11]
  Rice plant response rating: 0
Smallflower flatsedge; [8]
  Plant response rating, S. Flatsedge (0 to 10 scale, 0 is no effect, 10 is complete control): 0
Smallflower flatsedge; [9]
  S. Flatsedge plant response rating (0 to 10 scale, 0 is no effect, 10 is complete control): 0
Smallflower flatsedge; [10]
  S. Flatsedge plant response rating: 0
Smallflower flatsedge; [11]
  S. Flatsedge plant response rating: 0
Duck salad; [8]
  Plant response rating, Ducksalad (0 to 10 scale, 0 is no effect, 10 is complete control): 0
Duck salad; [9]
  Ducksalad plant response rating (0 to 10 scale, 0 is no effect, 10 is complete control): 0
Duck salad; [10]
  Ducksalad plant response rating: 0
Duck salad; [11]
  Ducksalad plant response rating: 0
bamyardgrass; [8]
  Plant response rating, Barnyardgrass (0 to 10 scale, 0 is no effect, 10 is complete control): 0
bamyardgrass; [9]
  Barnyardgrass plant response rating (0 to 10 scale, 0 is no effect, 10 is complete control): 0
bamyardgrass; [10]
  Barnyardgrass plant response rating: 0
bamyardgrass; [11]
  Barnyardgrass plant response rating: 0
